Experimental data published in ChEMBL document CHEMBL4196079, “Molecular interaction of novel benzothiazolyl triazolium analogues with calf thymus DNA and HSA-their biological investigation as potent antimicrobial agents” (Eur J Med Chem, 2018).
Converted amounts (≈) assume the structure as drawn.

Legend:
Shigella dysenteriae = assay: Antibacterial activity against Shigella dysenteriae after 24 hrs by NCCLS micro broth dilution method; type: functional
Cyberlindnera jadinii = assay: Antifungal activity against Candida utilis after 24 hrs by NCCLS micro broth dilution method; type: functional; settings: Williopsis jadinii
Escherichia coli [1] = assay: Antibacterial activity against Escherichia coli JM109 after 24 hrs by NCCLS micro broth dilution method; type: functional; settings: JM109, 24 h
Pichia norvegensis = assay: Antifungal activity against Candida mycoderma after 24 hrs by NCCLS micro broth dilution method; type: functional
Saccharomyces cerevisiae [2] = assay: Potency index, ratio of fluconazole MIC to compound MIC for antifungal activity against Saccharomyces cerevisiae; type: functional
Bacillus = assay: Antibacterial activity against Bacillus proteus ATCC 13315 after 24 hrs by NCCLS micro broth dilution method; type: functional; settings: ATCC 13315, 24 h
Staphylococcus aureus [3] = assay: Antibacterial activity against Staphylococcus aureus ATCC 25923 after 24 hrs by NCCLS micro broth dilution method; type: functional; settings: ATCC 25923, 24 h
Aspergillus flavus = assay: Antifungal activity against Aspergillus flavus after 24 hrs by NCCLS micro broth dilution method; type: functional
Saccharomyces cerevisiae [4] = assay: Antifungal activity against Saccharomyces cerevisiae after 24 hrs by NCCLS micro broth dilution method; type: functional
Micrococcus luteus = assay: Antibacterial activity against Micrococcus luteus ATCC 4698 after 24 hrs by micro broth dilution method; type: functional; settings: ATCC 4698, 24 h
Pseudomonas aeruginosa = assay: Antibacterial activity against Pseudomonas aeruginosa ATCC 27853 after 24 hrs by NCCLS micro broth dilution method; type: functional; settings: ATCC 27853, 24 h
Escherichia coli [5] = assay: Antibacterial activity against Escherichia coli DH52 after 24 hrs by NCCLS micro broth dilution method; type: functional; settings: DH52, 24 h
Staphylococcus aureus [6] = assay: Antibacterial activity against methicillin-resistant Staphylococcus aureus N315 after 24 hrs by NCCLS micro broth dilution method; type: functional; settings: N315, 24 h
Bacillus subtilis = assay: Antibacterial activity against Bacillus subtilis ATCC 21216 after 24 hrs by NCCLS micro broth dilution method; type: functional; settings: ATCC 21216, 24 h
Salmonella typhi = assay: Antibacterial activity against Salmonella typhi after 24 hrs by NCCLS micro broth dilution method; type: functional, Salmonella enterica subsp. enterica serovar Typhi; settings: Salmonella enterica
Candida albicans = assay: Antifungal activity against Candida albicans ATCC 76615 after 24 hrs by NCCLS micro broth dilution method; type: functional; settings: ATCC 76615, 24 h
Albumin [7] = target: T1, Albumin (Homo sapiens, UniProt P02768); assay: Binding affinity to HSA assessed as biomolecular quenching rate constant at pH 7.3 at 303 K by fluorescence assay; type: ADME; settings: isolated protein
Albumin [8] = target: T1, Albumin; assay: Binding affinity to HSA assessed as Stern-Volmer quenching constant at pH 7.3 at 310 K by fluorescence assay; type: ADME; settings: isolated protein
Albumin [9] = target: T1, Albumin; assay: Binding affinity to HSA assessed as change in free energy at 286 K by Van't hoff plot analysis; type: ADME; settings: isolated protein
Albumin [10] = target: T1, Albumin; assay: Binding affinity to HSA assessed as Stern-Volmer quenching constant at pH 7.3 at 303 K by fluorescence assay; type: ADME; settings: isolated protein
Albumin [11] = target: T1, Albumin; assay: Binding affinity to HSA assessed as change in free energy at 303 K by Van't hoff plot analysis; type: ADME; settings: isolated protein
Albumin [12] = target: T1, Albumin; assay: Binding affinity to HSA assessed as change in enthalpy at 286 K by Van't hoff plot analysis; type: ADME; settings: isolated protein
Albumin [13] = target: T1, Albumin; assay: Binding affinity to HSA assessed as change in free energy at 310 K by Van't hoff plot analysis; type: ADME; settings: isolated protein
Albumin [14] = target: T1, Albumin; assay: Binding affinity to HSA assessed as biomolecular quenching rate constant at pH 7.3 at 310 K by fluorescence assay; type: ADME; settings: isolated protein
Albumin [15] = target: T1, Albumin; assay: Binding affinity to HSA assessed as Stern-Volmer quenching constant at pH 7.3 at 286 K by fluorescence assay; type: ADME; settings: isolated protein
Albumin [16] = target: T1, Albumin; assay: Binding affinity to HSA assessed as biomolecular quenching rate constant at pH 7.3 at 286 K by fluorescence assay; type: ADME; settings: isolated protein
Calf thymus DNA = assay: Inhibition of neutral red binding to calf thymus DNA by UV-Visible absorption spectroscopy; type: nucleic-acid assay; settings: Bos taurus
Albumin [17] = target: T1, Albumin; assay: Binding affinity to HSA assessed as change in entropy at 286 K by Van't hoff plot analysis; type: ADME; settings: isolated protein
MDA-MB-231 = assay: Cytotoxicity against human MDA-MB-231 cells after 24 hrs by MTT assay; type: cell-based; settings: MDA-MB-231, 24 h

T1 sequence (P02768 whole entry): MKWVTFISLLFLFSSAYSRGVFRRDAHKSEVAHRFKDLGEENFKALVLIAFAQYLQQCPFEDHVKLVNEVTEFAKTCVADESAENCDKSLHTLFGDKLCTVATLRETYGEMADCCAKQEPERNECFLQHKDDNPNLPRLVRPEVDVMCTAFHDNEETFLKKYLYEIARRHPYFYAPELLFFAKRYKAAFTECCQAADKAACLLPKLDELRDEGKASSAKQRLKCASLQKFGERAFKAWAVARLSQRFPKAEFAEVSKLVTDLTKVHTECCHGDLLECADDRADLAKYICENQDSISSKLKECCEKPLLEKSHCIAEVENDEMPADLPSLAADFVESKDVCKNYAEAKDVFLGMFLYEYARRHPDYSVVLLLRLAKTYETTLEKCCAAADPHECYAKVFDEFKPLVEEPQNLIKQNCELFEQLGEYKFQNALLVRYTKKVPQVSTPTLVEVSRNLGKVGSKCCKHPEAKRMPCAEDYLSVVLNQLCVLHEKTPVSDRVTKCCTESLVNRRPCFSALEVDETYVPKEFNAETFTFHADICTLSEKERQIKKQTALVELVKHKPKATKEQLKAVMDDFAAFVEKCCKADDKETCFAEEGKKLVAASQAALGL

SMILES	MIC (Shigella dysenteriae) [µg/mL]	MIC (Cyberlindnera jadinii) [µg/mL]	MIC (Escherichia coli [1]) [µg/mL]	MIC (Pichia norvegensis) [µg/mL]	Ratio (Saccharomyces cerevisiae [2])	MIC (Bacillus) [µg/mL]	MIC (Staphylococcus aureus [3]) [µg/mL]	MIC (Aspergillus flavus) [µg/mL]	MIC (Saccharomyces cerevisiae [4]) [µg/mL]	MIC (Micrococcus luteus) [µg/mL]	MIC (Pseudomonas aeruginosa) [µg/mL]	MIC (Escherichia coli [5]) [µg/mL]	MIC (Staphylococcus aureus [6]) [µg/mL]	MIC (Bacillus subtilis) [µg/mL]	MIC (Salmonella typhi) [µg/mL]	MIC (Candida albicans) [µg/mL]	also measured
CCCCCn1cc(COCc2c(-c3ccccc3)nc3sc4cc(OCC)ccc4n23)nn1	128 (≈ 269 µM)	1 (≈ 2.1 µM)	128 (≈ 269 µM)	4 (≈ 8.41 µM)	2	64 (≈ 135 µM)	128 (≈ 269 µM)	32 (≈ 67.3 µM)	8 (≈ 16.8 µM)	128 (≈ 269 µM)	128 (≈ 269 µM)	128 (≈ 269 µM)	32 (≈ 67.3 µM)	64 (≈ 135 µM)	128 (≈ 269 µM)	8 (≈ 16.8 µM)	
CCOc1ccc2c(c1)sc1nc(-c3ccccc3)c(COCc3cn(Cc4ccc(Cl)c(Cl)c4)nn3)n12	16 (≈ 28.3 µM)	2 (≈ 3.54 µM)	1 (≈ 1.77 µM)	4 (≈ 7.09 µM)		8 (≈ 14.2 µM)	16 (≈ 28.3 µM)	64 (≈ 113 µM)	16 (≈ 28.3 µM)	2 (≈ 3.54 µM)	4 (≈ 7.09 µM)	32 (≈ 56.7 µM)	16 (≈ 28.3 µM)	4 (≈ 7.09 µM)	8 (≈ 14.2 µM)	8 (≈ 14.2 µM)	Kq (Albumin [7]): 5.53 ×10¹² L/mol/s; KSV (Albumin [8]): 3.42 ×10⁴ L/mol; deltaG (Albumin [9]): -5.9113 kcal/mol; KSV (Albumin [10]): 3.54 ×10⁴ L/mol; deltaG (Albumin [11]): -5.9183 kcal/mol; deltaH (Albumin [12]): -1.54 kcal/mol; deltaG (Albumin [13]): -6.0194 kcal/mol; Kq (Albumin [14]): 5.34 ×10¹² L/mol/s; KSV (Albumin [15]): 4.04 ×10⁴ L/mol; Kq (Albumin [16]): 6.36 ×10¹² L/mol/s; inhibition (Calf thymus DNA): Dose-dependent effect; deltaS (Albumin [17]): 60.5 J/mol.K
CCOc1ccc2c(c1)sc1nc(-c3ccccc3)c(COCc3cn(Cc4cccc(F)c4)nn3)n12	128 (≈ 249 µM)	16 (≈ 31.2 µM)	128 (≈ 249 µM)	16 (≈ 31.2 µM)		64 (≈ 125 µM)	128 (≈ 249 µM)	64 (≈ 125 µM)	32 (≈ 62.3 µM)	128 (≈ 249 µM)	64 (≈ 125 µM)	16 (≈ 31.2 µM)	16 (≈ 31.2 µM)	128 (≈ 249 µM)	32 (≈ 62.3 µM)	8 (≈ 15.6 µM)	IC50 (MDA-MB-231): < 100 µg/mL
CCCCCCn1cc(COCc2c(-c3ccccc3)nc3sc4ccccc4n23)nn1	2 (≈ 4.49 µM)	4 (≈ 8.98 µM)	32 (≈ 71.8 µM)	32 (≈ 71.8 µM)	2	8 (≈ 18 µM)	8 (≈ 18 µM)	32 (≈ 71.8 µM)	8 (≈ 18 µM)	2 (≈ 4.49 µM)	16 (≈ 35.9 µM)	32 (≈ 71.8 µM)	16 (≈ 35.9 µM)	16 (≈ 35.9 µM)	16 (≈ 35.9 µM)	8 (≈ 18 µM)	
CCCCCCCn1cc(COCc2c(-c3ccccc3)nc3sc4ccccc4n23)nn1	128 (≈ 278 µM)	16 (≈ 34.8 µM)	128 (≈ 278 µM)	32 (≈ 69.6 µM)		64 (≈ 139 µM)	128 (≈ 278 µM)	256 (≈ 557 µM)	32 (≈ 69.6 µM)	128 (≈ 278 µM)	64 (≈ 139 µM)	64 (≈ 139 µM)	128 (≈ 278 µM)	128 (≈ 278 µM)	64 (≈ 139 µM)	32 (≈ 69.6 µM)	
